Test [1] deals with T1, EED protein (His6-tagged full-length) binding to H3K27me3 polypeptide (Homo sapiens, UniProt O75530).
T1 construct: His6-tagged full-length EED protein (441 amino acids)
Nature of the test: AlphaScreen evaluation of blocking the binding of EED to H3K27Me3. The settings on record: EED 60 nM, biotinylated H3K27me3 75 nM, 30 minutes incubation. As for the experimental part:
Firstly, compound solutions of different concentration gradients were prepared. Compound powder was dissolved in DMSO to prepare a mother liquor. 1.5 μl of the mother liquor of the compound was taken and added into 198.5 μl of a reaction buffer (25 mM HEPES (pH 8.0), 50 mM NaCl, 0.015% Tween 20, 0.5% BSA). The mixture was mixed uniformly. Then a 3-fold series dilution was carried out with the above-mentioned buffer containing 0.75% DMSO. 9 different test concentrations were provided for one same compound. 5 μL of compounds of different concentration gradients were taken and added into the ProxiPlate-384 Plus, White detection plate (PerkinElmer, 6008280) and two replicates in parallel were provided for each concentration gradient.
Secondly, a reaction for blocking the binding was carried out. The above-mentioned buffer was used to dilute His6-tagged full-length EED protein (441 amino acids) to 60 nM and biotinylated polypeptide fragment H3K27me3 (amino acids at positions 19-33) (Biotinylated-H3K27me3) to 75 nM. 5 μl of the polypeptide fragment at the concentration of 75 nM and 5 µl of the protein at the concentration of 60 nM were transferred to the detection wells containing the compound, respectively. The detection plate was sealed with the film and incubation was carried out at room temperature for 30 minutes.
Finally, the detection was carried out with the AlphaScreen method. Prior use, nickel chelate receptor beads and streptavidin donor beads (at the ratio of 1:1, Perkin Elmer, product number 6760619M) were mixed with the above-mentioned reaction buffer. Then 5 μl of the above-mentioned pre-mixed detection solution was added to each of the detection wells. The donor beads and receptor beads were both at a final concentration of 5 μg/mL. The detection plate was covered and sealed with tinfoil and placed in the dark at room temperature for 1 hour. The signal was read using the AlphaScreen detector on the Spectra max i3. AlphaScreen signals were standardlized based on the readings obtained from positive controls (maximum signal controls) and negative controls (minimum signal controls) to give the inhibition rates for compounds at different concentrations, and afterwards non-linear regression analysis was carried out using GraphPad Prism 5, inhibition curves were made based on the Dose-Response equation of Y=Bottom+(Top−Bottom)/(1+10^((Log IC50−X)*HillSlope)) and the IC50 values of each compound were obtained. […]
(In Alpha technology, singlet oxygen from a donor bead excites a nearby acceptor bead.)

For test [2], the system named is trimethylation level of histone H3K27 in G401 cells. Nature of the test: ELISA (H3K27 trimethylation) analysis in G401 cells. The test is classed as cell-based. Particulars: Homo sapiens, G-401, 72 hours, H3K27me3 standardized to H3. In a few lines: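 Cells exposed 72 h to 10-point 3-fold dilutions, top 10 μM, 0.5% final DMSO. Acid-extracted histones assayed by ELISA (ECL) for H3K27me3, normalized to total H3 and to DMSO control; IC50 from dose-response fit.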

For test [3], the system named is KARPAS-422 cells. Nature of the test: Cell proliferation analysis, KARPAS-422, 13 days, CellTiter-Glo. The class given is cell-based. The settings on record: Homo sapiens, 312 h. The method in brief: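 KARPAS-422 cells were treated with PRC2 inhibitors over 9 three-fold dilutions from 10 μM top (0.5% DMSO, duplicates) in RPMI-1640 with 15% FBS at 37 °C. Every 3–4 days cells were counted and reseeded at 1×10^4/well with fresh compound. Viability was read by CellTiter-Glo luminescence on day 13.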
A general note: ATP-based viability assays read luminescence as a measure of living cells.

T1 sequence (O75530 whole entry): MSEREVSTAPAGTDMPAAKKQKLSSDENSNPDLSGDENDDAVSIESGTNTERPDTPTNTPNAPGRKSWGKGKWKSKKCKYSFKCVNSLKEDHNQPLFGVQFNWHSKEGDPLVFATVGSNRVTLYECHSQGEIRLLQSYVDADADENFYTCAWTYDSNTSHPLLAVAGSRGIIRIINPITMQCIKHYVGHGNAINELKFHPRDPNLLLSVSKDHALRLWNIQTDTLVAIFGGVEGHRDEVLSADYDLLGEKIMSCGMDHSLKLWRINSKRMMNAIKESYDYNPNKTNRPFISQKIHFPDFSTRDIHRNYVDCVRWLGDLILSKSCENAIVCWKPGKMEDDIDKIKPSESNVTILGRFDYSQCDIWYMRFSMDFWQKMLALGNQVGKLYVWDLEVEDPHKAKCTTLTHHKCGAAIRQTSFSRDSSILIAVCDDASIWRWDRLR

One may read the IC50 as the midpoint of a concentration-inhibition curve. A lower IC50 goes with inhibition by little substance. `Fc1ccc2c(c1CNc1ncc(-c3cc(Cl)cn4cc(C(F)(F)F)nc34)c3nncn13)CCO2`: the IC50 in test [1] worked out at 0.0096 µM; in test [2], 0.089 µM.

`Fc1ccc2c(c1CNc1ncc(-c3cccn4c(F)cnc34)c3nncn13)CCO2`: the IC50 stood at 0.0092 µM in test [1] and 0.0035 µM in test [2]. The like results for `O=S1(=O)C=c2cc(-c3cnc(NCc4c(F)ccc5c4[C@H]4C[C@H]4O5)n4cnnc34)ccc2=C1F` [1-fluoro-5-(5-((((1aR,6bR)-5-fluoro-1a,6b-dihydro-1H-cyclopropa[b]benzofuran-6-yl)methyl)amino)-[1,2,4]triazolo[4,3-c]pyrimidin-8-yl)benzo[c]thiophene 2,2-dioxide] were, in that order, 0.186 µM and 0.075 µM. The like results for `CC1=C(Cl)c2cc(-c3cnc(NCc4c(F)ccc5c4[C@H]4C[C@H]4O5)n4cnnc34)ccc2S1(=O)=O` [3-chloro-5-(5-((((1aR,6bR)-5-fluoro-1a,6b-dihydro-1H-cyclopropa[b]benzofuran-6-yl)methyl)amino)-[1,2,4]triazolo[4,3-c]pyrimidin-8-yl)-2-methylbenzo[b]thiophene 1,1-dioxide] were, in that order, 0.011 µM and 0.127 µM. Regarding `CC1=Cc2cc(-c3cnc(NCc4c(F)ccc5c4CCO5)n4cnnc34)cc(Cl)c2S1(=O)=O` [7-chloro-5-(5-(((5-fluoro-2,3-dihydrobenzofuran-4-yl)methyl)amino)-[1,2,4]triazolo[4,3-c]pyrimidin-8-yl)-2-methylbenzo[b]thiophene 1,1-dioxide], the IC50 came out at 0.0039 µM in test [1] and 0.026 µM in test [2].

`Fc1ccc2c(c1CNc1ncc(C3=CC=CN4CCN=C34)c3nncn13)CCO2` [8-(2,3-dihydroimidazo[1,2-a]pyridin-8-yl)-N-((5-fluoro-2,3-dihydrobenzofuran-4-yl)methyl)-[1,2,4]triazolo[4,3-c]pyrimidin-5-amine] had an IC50 in test [1] of 0.0052 µM. As for `Cc1ccc(-c2cnc(NCc3c(F)ccc4c3CCO4)n3cnnc23)c2ncc(C(=O)O)n12` [8-(5-(((5-fluoro-2,3-dihydrobenzofuran-4-yl)methyl)amino)-[1,2,4]triazolo[4,3-c]pyrimidin-8-yl)-5-methylimidazo[1,2-a]pyridine-3-carboxylic acid], the 50% inhibitory concentration (IC50) was 0.0054 µM in test [1] and 0.004 µM in test [2]. Regarding `O=C(O)c1cnc2c(-c3cnc(NCc4c(F)ccc5c4CCO5)n4cnnc34)cccn12` [8-(5-(((5-fluoro-2,3-dihydrobenzofuran-4-yl)methyl)amino)-[1,2,4]triazolo[4,3-c]pyrimidin-8-yl)imidazo[1,2-a]pyridine-3-carboxylic acid], the IC50 in test [1] is 0.0051 µM; in test [2], 0.329 µM. As for `CCOC(=O)c1c(O)nc2c(-c3cnc(NCc4c(F)ccc5c4CCO5)n4cnnc34)cc(F)cn12` [Ethyl 6-fluoro-8-(5-(((5-fluoro-2,3-dihydrobenzofuran-4-yl)methyl)amino)-[1,2,4]triazolo[4,3-c]pyrimidin-8-yl)-2-hydroxyimidazo[1,2-a]pyridine-3-carboxylate], the IC50 in test [1] turned out to be 0.0912 µM; in test [2], 0.091 µM. As to `CCOC(=O)c1c(C)nc2c(-c3cnc(NCc4c(F)ccc5c4CCO5)n4cnnc34)cc(F)cn12` [Ethyl 6-fluoro-8-(5-(((5-fluoro-2,3-dihydrobenzofuran-4-yl)methyl)amino)-[1,2,4]triazolo[4,3-c]pyrimidin-8-yl)-2-methylimidazo[1,2-a]pyridine-3-carboxylate], the figures for the IC50 in test [1] and in test [2] were 0.0452 µM and 0.087 µM, respectively. As for `CCOC(=O)c1cnc2c(-c3cnc(NCc4c(F)ccc5c4CCO5)n4cnnc34)cc(F)cn12` [Ethyl 6-fluoro-8-(5-(((5-fluoro-2,3-dihydrobenzofuran-4-yl)methyl)amino)-[1,2,4]triazolo[4,3-c]pyrimidin-8-yl)imidazo[1,2-a]pyridine-3-carboxylate], the half-maximal inhibitory concentration (IC50) turned out to be 0.0221 µM in test [1] and 0.047 µM in test [2]. Take `COc1ccc(-c2cnc(NCc3c(F)ccc4c3CCO4)n3cnnc23)c2ncnn12` [N-((5-fluoro-2,3-dihydrobenzofuran-4-yl)methyl)-8-(5-methoxy-[1,2,4]triazolo[1,5-a]pyridin-8-yl)-[1,2,4]triazolo[4,3-c]pyrimidin-5-amine]: the values for the 50% inhibitory concentration (IC50) in test [2] and in test [3] were 0.0032 µM and 0.0011 µM, respectively. The corresponding values for `Cc1ccc(-c2cnc(NCc3c(F)ccc4c3CCO4)n3cnnc23)c2ncnn12` [N-((5-fluoro-2,3-dihydrobenzofuran-4-yl)methyl)-8-(5-methyl-[1,2,4]triazolo[1,5-a]pyridin-8-yl)-[1,2,4]triazolo[4,3-c]pyrimidin-5-amine] are 0.0017 µM and 0.0018 µM. The like results for `Cc1ncc(-c2cnc(NCc3c(F)ccc4c3CCO4)n3cnnc23)c2ncnn12` [N-((5-fluoro-2,3-dihydrobenzofuran-4-yl)methyl)-8-(5-methyl-[1,2,4]triazolo[1,5-c]pyrimidin-8-yl)-[1,2,4]triazolo[4,3-c]pyrimidin-5-amine] were, in that order, 0.0045 µM and 0.0025 µM. The corresponding values for `Cc1ccc(-c2cnc(NCc3c(F)ccc4c3CCO4)n3cnnc23)c2nncn12` [N-((5-fluoro-2,3-dihydrobenzofuran-4-yl)methyl)-8-(5-methyl-[1,2,4]triazolo[4,3-a]pyridin-8-yl)-[1,2,4]triazolo[4,3-c]pyrimidin-5-amine] are 0.0002 µM and 0.0002 µM. Consider `Cc1ccc(-c2cnc(NCc3c(F)ccc4c3CCO4)n3cnnc23)c2nnnn12` [N-((5-fluoro-2,3-dihydrobenzofuran-4-yl)methyl)-8-(5-methyltetrazolo[1,5-a]pyridin-8-yl)-[1,2,4]triazolo[4,3-c]pyrimidin-5-amine], for which the half-maximal inhibitory concentration (IC50) in test [2] came out at 0.0024 µM; in test [3] it was 0.0025 µM. Consider `Fc1ccc2c(c1CNc1ncc(-c3ccc(N4CCOCC4)n4ncnc34)c3nncn13)CCO2` [N-((5-fluoro-2,3-dihydrobenzofuran-4-yl)methyl)-8-(5-morpholino-[1,2,4]triazolo[1,5-a]pyridin-8-yl)-[1,2,4]triazolo[4,3-c]pyrimidin-5-amine], for which the IC50 in test [2] came to 0.0011 µM; in test [3], 0.0007 µM.

Regarding `Cc1c(F)cc(-c2cnc(NCc3c(F)ccc4c3CCO4)n3cnnc23)c2ncnn12` [N-((5-fluoro-2,3-dihydrobenzofuran-4-yl)methyl)-8-(6-fluoro-5-methyl-[1,2,4]triazolo[1,5-a]pyridin-8-yl)-[1,2,4]triazolo[4,3-c]pyrimidin-5-amine], the IC50 came out at 0.0036 µM in test [2] and 0.0047 µM in test [3].

As for `COc1cc(-c2cnc(NCc3c(F)ccc4c3CCO4)n3cnnc23)c2ncnn2c1` [N-((5-fluoro-2,3-dihydrobenzofuran-4-yl)methyl)-8-(6-methoxy-[1,2,4]triazolo[1,5-a]pyridin-8-yl)-[1,2,4]triazolo[4,3-c]pyrimidin-5-amine], the figures for the half-inhibitory concentration (IC50) in test [2] and in test [3] were 0.0012 µM and 0.0017 µM, respectively.

Regarding `CC(=O)NCc1cnc2c(-c3cnc(NCc4c(F)ccc5c4CCO5)n4cnnc34)ccc(C)n12` [N-((8-(5-(((5-fluoro-2,3-dihydrobenzofuran-4-yl)methyl)amino)-[1,2,4]triazolo[4,3-c]pyrimidin-8-yl)-5-methylimidazo[1,2-a]pyridin-3-yl)methyl)acetamide], the values for the IC50 in test [2] and in test [3] were 0.0024 µM and 0.0032 µM, respectively. The like results for `Cc1ccc(-c2cnc(NCc3c(F)ccc4c3[C@H]3C[C@H]3O4)n3cnnc23)c2ncnn12` [N-(((1aR,6bR)-5-fluoro-1a,6b-dihydro-1H-cyclopropa[b]benzofuran-6-yl)methyl)-8-(5-methyl-[1,2,4]triazolo[1,5-a]pyridin-8-yl)-[1,2,4]triazolo[4,3-c]pyrimidin-5-amine] were, in that order, 0.0024 µM and 0.0044 µM. The like results for `Cc1ccc(-c2cnc(NCc3c(F)ccc4c3[C@H]3C[C@H]3O4)n3cnnc23)c2nccn12` [N-(((1aR,6bR)-5-fluoro-1a,6b-dihydro-1H-cyclopropa[b]benzofuran-6-yl)methyl)-8-(5-methylimidazo[1,2-a]pyridin-8-yl)-[1,2,4]triazolo[4,3-c]pyrimidin-5-amine] were, in that order, 0.0012 µM and 0.0009 µM.

The record behind these values is patent US12583870B2, “Azaheteroaryl compound and application thereof” (SHANGHAI BLUERAY BIOPHARMA CO., LTD., priority 2019, dated 2026).
